Reference: patent US8426437B2, “Pyrroloquinoline derivatives and their use as protein kinases inhibitors” (Pierre Fabre Medicament, priority 2005, dated 2013)
Each block holds one molecule with its values, some of them ahead of it.

Assays:
[1] = tested on: MLCK (h); assay: Upstate kinase panel: MLCK; format: biochemical, human; conditions: compound 1 μM, ATP (10)
Experimental: (§1) These kinases are produced by Upstate and screened according to the respective protocols indicated by the supplier (http://www.upstate.com/features/kp_protocols.asp). Examples 1, 12, 166 and 238 were tested at a concentration of 20 μM, 10 μM, 1 μM and 1 μM respectively in the presence of 10 μM of ATP for examples 1 and 12 and at the concentrations of ATP shown in parentheses for examples 166 and 238. The results shown in Table VII correspond to percentage inhibition of the kinase tested in the presence of the compound, relative to a control effected without the compound.

[2] = tested on: U251; assay: WST test, inhibition of proliferation of U251; format: cell-based; conditions: Homo sapiens, U-251, 96 h; line U251, tissue of origin CMS; four days of incubation, WST-1
Experimental: (§2) The inhibition of the proliferation of cell lines by certain compounds of the invention was tested. […] In the example, the lines used were derived from cancers of the uterus, central nervous system, colon, stomach, head and neck, lung, breast, pancreas, and kidney, as well as from lymphoma, myeloma, pleura, or from melanoma.
(§3) The WST test for measuring cell proliferation and viability (Roche Applied Science) is based on cleavage of a tetrazolium salt by the mitochondrial dehydrogenases in viable cells.
(§4) After four days of incubation of the compounds with the cell line, 14 μl of WST-1 reagent is added to each well and the plates are incubated for four hours at 37° in humid atmosphere at 5% CO2. The level of formazan formed is then determined by spectrophotometry at 450 nm whereas a reference is measured at 650 nm. A control with untreated cells is represented by six wells per plate and the group of treated cells is produced in triplicate for each of the concentrations measured.
(§5) The compounds are tested at five concentrations between 10 nM and 100 μM and two cytotoxic agents are used as controls: adriamycin and 5-fluorouracil.

[3] = tested on: MDA-231; assay: WST test, inhibition of proliferation of MDA-231; format: cell-based; conditions: Homo sapiens, MDA-MB-231, 96 h; line MDA-231, tissue of origin Breast; four days of incubation, WST-1
Experimental: as §2, §3, §4, §5

[4] = tested on: SW756; assay: WST test, inhibition of proliferation of SW756; format: cell-based; conditions: Homo sapiens, 96 h; line SW756, tissue of origin Cervix; four days of incubation, WST-1
Experimental: as §2, §3, §4, §5

[5] = tested on: SKUT1B; assay: WST test, inhibition of proliferation of SKUT1B; format: cell-based; conditions: Homo sapiens, 96 h; line SKUT1B, tissue of origin Uterus; four days of incubation, WST-1
Experimental: as §2, §3, §4, §5

[6] = tested on: A427; assay: WST test, inhibition of proliferation of A427; format: cell-based; conditions: Homo sapiens, A-427, 96 h; line A427, tissue of origin Lung (NSCLC); four days of incubation, WST-1
Experimental: as §2, §3, §4, §5

[7] = tested on: RAJI; assay: WST test, inhibition of proliferation of RAJI; format: cell-based; conditions: Homo sapiens, 96 h; line RAJI, tissue of origin Lymphoma; four days of incubation, WST-1
Experimental: as §2, §3, §4, §5

[8] = tested on: HT144; assay: WST test, inhibition of proliferation of HT144; format: cell-based; conditions: Homo sapiens, HT-144, 96 h; line HT144, tissue of origin Melanoma; four days of incubation, WST-1
Experimental: as §2, §3, §4, §5

[9] = tested on: 1752L; assay: WST test, inhibition of proliferation of 1752L; format: cell-based; conditions: 96 h; line 1752L, tissue of origin Pleuromesothelium; four days of incubation, WST-1
Experimental: as §2, §3, §4, §5

[10] = tested on: A498; assay: WST test, inhibition of proliferation of A498; format: cell-based; conditions: Homo sapiens, 96 h; line A498, tissue of origin Kidney; four days of incubation, WST-1
Experimental: as §2, §3, §4, §5

[11] = target: T1, Met (h) (Homo sapiens, UniProt P08581); assay: Upstate kinase panel: Met; format: biochemical; conditions: compound 20 μM, 10 μM ATP, read-out: % inhibition at 20 μMol
T1 construct: purchased Upstate
T1 sequence (P08581 25-1390): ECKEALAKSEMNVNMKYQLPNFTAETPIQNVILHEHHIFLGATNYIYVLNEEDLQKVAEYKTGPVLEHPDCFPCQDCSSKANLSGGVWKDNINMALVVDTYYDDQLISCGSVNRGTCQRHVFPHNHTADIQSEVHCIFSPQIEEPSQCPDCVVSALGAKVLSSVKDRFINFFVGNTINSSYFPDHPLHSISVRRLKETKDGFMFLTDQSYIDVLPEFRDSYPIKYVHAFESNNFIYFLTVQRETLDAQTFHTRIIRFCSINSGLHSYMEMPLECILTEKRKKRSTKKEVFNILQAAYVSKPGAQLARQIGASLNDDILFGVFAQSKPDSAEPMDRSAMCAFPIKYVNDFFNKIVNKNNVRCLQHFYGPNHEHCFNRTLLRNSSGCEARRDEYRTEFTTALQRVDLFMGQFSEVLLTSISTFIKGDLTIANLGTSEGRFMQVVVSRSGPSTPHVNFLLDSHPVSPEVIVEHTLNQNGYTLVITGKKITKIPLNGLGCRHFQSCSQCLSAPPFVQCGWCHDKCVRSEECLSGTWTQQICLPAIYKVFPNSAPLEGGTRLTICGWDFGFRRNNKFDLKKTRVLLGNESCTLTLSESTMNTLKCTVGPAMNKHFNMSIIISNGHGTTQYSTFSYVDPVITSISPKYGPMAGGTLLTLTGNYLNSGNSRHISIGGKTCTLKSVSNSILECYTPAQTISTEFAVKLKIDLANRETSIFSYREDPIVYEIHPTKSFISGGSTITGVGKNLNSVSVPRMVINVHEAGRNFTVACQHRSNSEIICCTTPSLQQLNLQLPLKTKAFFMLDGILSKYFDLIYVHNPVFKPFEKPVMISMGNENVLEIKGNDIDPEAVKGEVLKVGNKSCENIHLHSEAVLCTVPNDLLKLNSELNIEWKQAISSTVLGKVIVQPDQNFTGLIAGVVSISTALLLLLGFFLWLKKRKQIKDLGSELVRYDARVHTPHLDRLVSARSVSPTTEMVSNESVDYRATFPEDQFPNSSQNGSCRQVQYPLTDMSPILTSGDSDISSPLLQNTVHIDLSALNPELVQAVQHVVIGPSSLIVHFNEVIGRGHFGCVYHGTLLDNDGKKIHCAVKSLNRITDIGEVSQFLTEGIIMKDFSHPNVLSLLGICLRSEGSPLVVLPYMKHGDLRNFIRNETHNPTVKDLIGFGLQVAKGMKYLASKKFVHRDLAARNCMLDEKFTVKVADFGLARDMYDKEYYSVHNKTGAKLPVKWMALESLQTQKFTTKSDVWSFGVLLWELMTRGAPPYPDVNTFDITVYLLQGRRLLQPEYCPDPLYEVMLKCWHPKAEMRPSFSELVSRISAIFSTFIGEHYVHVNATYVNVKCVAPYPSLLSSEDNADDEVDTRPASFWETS
Experimental: as §1

[12] = target: ALK (Homo sapiens, UniProt Q9UM73); assay: Inhibition of kinase ALK (PLCγ1-GST substrate, anti-phosphotyrosine ELISA); format: biochemical; conditions: ALK 180 ng/ml, 250 μM ATP, 30 minutes at 30° C.
Chain of ALK (Q9UM73 19-1620, species assumed): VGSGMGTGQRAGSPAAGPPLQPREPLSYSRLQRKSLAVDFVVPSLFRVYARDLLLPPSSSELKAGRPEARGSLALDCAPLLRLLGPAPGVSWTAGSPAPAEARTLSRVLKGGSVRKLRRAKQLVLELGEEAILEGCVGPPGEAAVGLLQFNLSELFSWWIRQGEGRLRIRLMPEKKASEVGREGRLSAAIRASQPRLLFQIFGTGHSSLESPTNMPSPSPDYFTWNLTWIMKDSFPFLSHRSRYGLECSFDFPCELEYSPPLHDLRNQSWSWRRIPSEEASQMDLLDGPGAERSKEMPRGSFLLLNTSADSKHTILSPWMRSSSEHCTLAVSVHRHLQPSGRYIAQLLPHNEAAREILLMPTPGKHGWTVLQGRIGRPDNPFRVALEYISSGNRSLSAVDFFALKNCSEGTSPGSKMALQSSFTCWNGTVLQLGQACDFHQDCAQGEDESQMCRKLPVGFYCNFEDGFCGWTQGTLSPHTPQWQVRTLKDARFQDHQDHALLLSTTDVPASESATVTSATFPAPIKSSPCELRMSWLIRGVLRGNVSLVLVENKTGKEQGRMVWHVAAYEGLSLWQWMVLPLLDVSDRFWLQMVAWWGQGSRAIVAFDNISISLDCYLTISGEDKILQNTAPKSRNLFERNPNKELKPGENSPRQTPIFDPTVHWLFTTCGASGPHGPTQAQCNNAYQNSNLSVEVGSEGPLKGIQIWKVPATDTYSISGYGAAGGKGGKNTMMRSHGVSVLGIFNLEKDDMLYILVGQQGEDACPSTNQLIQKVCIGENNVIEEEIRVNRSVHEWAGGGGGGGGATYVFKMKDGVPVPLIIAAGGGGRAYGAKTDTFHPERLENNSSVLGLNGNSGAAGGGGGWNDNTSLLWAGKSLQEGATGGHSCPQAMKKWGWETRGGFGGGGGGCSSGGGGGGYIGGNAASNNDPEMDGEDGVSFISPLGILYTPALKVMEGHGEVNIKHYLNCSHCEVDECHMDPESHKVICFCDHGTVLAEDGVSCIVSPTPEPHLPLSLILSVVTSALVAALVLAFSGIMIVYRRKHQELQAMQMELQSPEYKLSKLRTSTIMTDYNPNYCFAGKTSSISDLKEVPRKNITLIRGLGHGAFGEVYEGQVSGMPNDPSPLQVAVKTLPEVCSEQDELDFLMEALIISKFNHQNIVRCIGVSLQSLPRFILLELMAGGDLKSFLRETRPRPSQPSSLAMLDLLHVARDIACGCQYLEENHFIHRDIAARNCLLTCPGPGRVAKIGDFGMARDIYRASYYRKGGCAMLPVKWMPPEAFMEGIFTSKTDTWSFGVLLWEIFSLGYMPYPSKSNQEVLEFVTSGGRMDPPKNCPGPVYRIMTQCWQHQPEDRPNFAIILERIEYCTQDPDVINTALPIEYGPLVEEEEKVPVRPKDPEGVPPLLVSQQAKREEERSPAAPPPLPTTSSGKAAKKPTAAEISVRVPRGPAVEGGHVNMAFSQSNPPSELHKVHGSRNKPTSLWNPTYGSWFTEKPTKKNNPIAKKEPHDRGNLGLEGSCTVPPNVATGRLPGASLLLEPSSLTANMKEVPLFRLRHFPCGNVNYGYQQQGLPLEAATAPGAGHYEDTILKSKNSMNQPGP
Experimental: Incubation is carried out for 30 minutes at 30° C. with agitation.
The signal is read in luminescent mode using a luminometer.

[13] = target: T2, TrkA (Homo sapiens, UniProt P04629); assay: Inhibition of kinase TrkA (Kinase-Glo); format: biochemical; conditions: TrkA 4 μg/ml, 30 μM ATP, two hours at 30° C.
T2 construct: purchased Upstate 14-571
T2 sequence (P04629 33-796): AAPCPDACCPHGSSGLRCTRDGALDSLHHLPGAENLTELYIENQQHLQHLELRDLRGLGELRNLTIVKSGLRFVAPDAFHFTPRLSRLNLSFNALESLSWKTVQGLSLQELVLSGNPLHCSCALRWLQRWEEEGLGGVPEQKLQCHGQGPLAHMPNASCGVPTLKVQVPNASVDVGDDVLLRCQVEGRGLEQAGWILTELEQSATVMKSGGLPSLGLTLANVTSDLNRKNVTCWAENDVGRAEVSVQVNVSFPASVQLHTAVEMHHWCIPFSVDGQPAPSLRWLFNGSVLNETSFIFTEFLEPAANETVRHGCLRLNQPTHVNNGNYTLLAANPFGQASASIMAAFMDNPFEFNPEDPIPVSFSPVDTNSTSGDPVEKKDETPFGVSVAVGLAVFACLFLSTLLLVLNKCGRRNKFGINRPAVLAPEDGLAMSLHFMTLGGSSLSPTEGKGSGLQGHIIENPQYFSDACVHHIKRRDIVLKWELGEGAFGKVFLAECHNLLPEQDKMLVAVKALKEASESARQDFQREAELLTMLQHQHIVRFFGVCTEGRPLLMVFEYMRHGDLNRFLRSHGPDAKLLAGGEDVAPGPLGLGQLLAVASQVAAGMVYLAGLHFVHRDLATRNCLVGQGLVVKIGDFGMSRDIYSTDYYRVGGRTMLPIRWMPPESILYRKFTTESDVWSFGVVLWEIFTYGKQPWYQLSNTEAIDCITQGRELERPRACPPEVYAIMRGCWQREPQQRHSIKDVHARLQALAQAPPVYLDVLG
In short: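 TrkA (4 μg/ml) was incubated with 1 mg/ml poly-EY and 30 μM ATP in MOPS pH 7 buffer with Mg acetate, DTT and vanadate, compounds at 10 nM–30 μM final, for 2 h at 30 °C. Remaining ATP was quantified by Kinase-Glo luminescence.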

[14] = target: T3, TrkB (Homo sapiens, UniProt Q16620); assay: Inhibition of kinase TrkB (Kinase-Glo); format: biochemical; conditions: TrkB 4 μg/ml, 40 μM ATP, two hours at 30° C.
T3 construct: purchased Upstate 14-507
T3 sequence (Q16620 32-822): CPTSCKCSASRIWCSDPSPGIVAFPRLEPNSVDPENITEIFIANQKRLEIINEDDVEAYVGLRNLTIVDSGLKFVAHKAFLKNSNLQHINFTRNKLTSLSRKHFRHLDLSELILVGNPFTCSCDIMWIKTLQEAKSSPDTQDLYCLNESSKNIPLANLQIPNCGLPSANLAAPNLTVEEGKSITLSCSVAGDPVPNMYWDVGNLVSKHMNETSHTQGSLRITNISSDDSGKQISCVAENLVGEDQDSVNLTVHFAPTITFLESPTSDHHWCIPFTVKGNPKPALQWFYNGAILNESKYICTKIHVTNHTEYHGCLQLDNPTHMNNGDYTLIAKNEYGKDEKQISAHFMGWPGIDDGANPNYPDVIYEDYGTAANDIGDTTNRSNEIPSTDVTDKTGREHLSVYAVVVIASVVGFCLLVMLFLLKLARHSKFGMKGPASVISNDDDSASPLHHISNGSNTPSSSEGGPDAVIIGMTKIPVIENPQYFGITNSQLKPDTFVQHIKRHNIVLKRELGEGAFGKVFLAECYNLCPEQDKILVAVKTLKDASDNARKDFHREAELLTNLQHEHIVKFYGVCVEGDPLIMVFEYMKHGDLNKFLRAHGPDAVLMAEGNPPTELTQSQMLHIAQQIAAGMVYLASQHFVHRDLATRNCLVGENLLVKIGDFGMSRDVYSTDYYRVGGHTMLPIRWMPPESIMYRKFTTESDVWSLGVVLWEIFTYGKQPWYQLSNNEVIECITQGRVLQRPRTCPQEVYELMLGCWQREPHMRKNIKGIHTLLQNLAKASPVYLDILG
In short: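 TrkB at 4 μg/ml with 2.5 mg/ml poly-EY and 40 μM ATP in MOPS/NaOH pH 7 buffer with MgAc, EDTA, DTT, vanadate and glycerophosphate; compounds at final 10 nM–30 μM. After 2 h at 30°C, remaining ATP measured by Kinase-Glo luminescence.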

% inhibition at 1 μMol [1]: 21%
IC50 [2]: 33 µM
IC50 [4]: 35 µM
IC50 [5]: 33 µM
IC50 [7]: 34 µM
IC50 [8]: 31 µM
SMILES: CCOC(=O)c1c[nH]c2c(=O)[nH]c3ccc(-c4cccc(S(C)(=O)=O)c4)cc3c12 [Compound 238, 8-(3-Methanesulfonyl-phenyl)-4-oxo-4,5-dihydro-3H-pyrrolo[2,3-c]quinoline-1-ethyl carboxylate]
IC50 [3]: 41 µM
IC50 [6]: 36 µM
IC50 [9]: 35 µM
IC50 [10]: 49 µM

inhibition at 20 µM [11]: 52%
SMILES: CCOC(=O)c1c[nH]c2c(=O)[nH]c3ccccc3c12 [Compound 1, 4-Oxo-4,5-dihydro-3H-pyrrolo[2,3-c]quinoline-1-ethyl carboxylate]

IC50 [12]: 0.1 to 1 µM
IC50 [13]: 1 to 10 µM
IC50 [14]: 1 to 10 µM
SMILES: CCOC(=O)c1c[nH]c2c(=O)[nH]c3ccc(S(=O)(=O)Nc4ccc(F)cc4)cc3c12 [Compound 12, 8-(4-Fluorophenylsulfamoyl)-4-oxo-4,5-dihydro-3H-pyrrolo[2,3-c]quinoline-1-ethyl carboxylate]
